Experimental findings from patent US20260216053A1, “COSMETIC COMPOSITION CONTAINING HOUTTUYNIA CORDATA FERMENTATION EXTRACT” (DAEBONG LS CO., LTD., priority 2022, published 2026) are described below.

Type in all cases: cell-based
One data set relates to HaCaT cells. Description: Evaluation of cytotoxicity, EZ-Cytox assay. The conditions noted are these: for HaCaT cell growth rate: versus untreated group 100%. As for the experimental part: (§1) HaCaT cells, which are skin keratinocytes, were provided by Cell Line Service GmbH (Germany). The cells were cultured in 5% CO2 incubator at 37° C. using Dulbecco's modified Eagle's medium (DMEM) containing 1% penicillin-streptomycin and 10% fetal bovine serum (FBS). Subculturing was performed with 2-3 day intervals.
The EZ-cytox assay is a representative method for measuring cell viability that utilizes the principle that a water-soluble tetrazolium salt (WST) reacts with the dehydrogenase of living cells to produce an orange-colored, water-soluble formazan.
To examine cytotoxicity, HaCaT cells were seeded at 1.0×10^4 cells/well in a 96-well plate using DMEM medium containing 10% FBS, and cultured under the condition of 37° C. and 5% CO2 for 24 hours. After exchanging the medium with serum-free DMEM, the cultured cells were treated with a sample to be evaluated. After that, EZ-cytox was added to each well and reacted under the condition of 37° C. and 5% CO2 for 30 minutes, and then absorbance was measured at 450 nm using a microplate reader. The average absorbance value for each sample group was calculated, and this value was compared with the absorbance value of the control group to evaluate cell viability.

Data set [1] relates to hyaluronic acid production in HaCaT cells. Description: Production of moisturizing factor hyaluronic acid (HA), ELISA. The conditions noted are these: 24 hours, supernatant, FIG. 1 and FIG. 2.
Experimental: HaCaT cells, which are skin keratinocytes, were provided by Cell Line Service GmbH (Germany). The cells were cultured in 5% CO2 incubator at 37° C. using Dulbecco's modified Eagle's medium (DMEM) containing 1% penicillin-streptomycin and 10% fetal bovine serum (FBS). Subculturing was performed with 2-3 day intervals. HaCaT cells were seeded at 1.0×10^5 cells/well in a 24-well plate and cultured for 24 hours under the condition of 37° C. and 5% CO2. After the cultured cell medium was replaced with serum-free DMEM, a sample was treated at different concentrations and the cells were cultured for 24 hours. Afterwards, the supernatant from each test group was collected and the amount of hyaluronic acid (HA) produced in the medium was measured. A control group was treated with N-acetylglucosamine at a concentration of 10 mM. The measurement of hyaluronic acid production was performed using the Hyaluronan Quantikine ELISA kit (R&D Systems) according to the method provided by the manufacturer.
Data set [2] relates to filaggrin production in HaCaT cells. As to the kind of experiment: Production of moisturizing factor filaggrin (FLG), ELISA. The conditions noted are these: 24 hours, cell lysate, FIG. 3 and FIG. 4. Here is the method: as §1
HaCaT cells were seeded at 1.0×10^5 cells/well in a 24-well plate and cultured for 24 hours under the condition of 37° C. and 5% CO2. After the cultured cell medium was replaced with serum-free DMEM, a sample was treated at different concentrations and the cells were cultured for 24 hours. Afterwards, the cells of each test group were lysed and proteins were collected. Then, the amount of filaggrin produced in the culture medium extract was measured. The measurement of filaggrin production was performed using the Filaggrin ELISA kit (Cusabio Biotechnology Co., Ltd) according to the method provided by the manufacturer. The result of measuring the amount of filaggrin produced depending on the quercetin treatment is shown in FIG. 3, and the result of measuring the amount of filaggrin produced depending on the treatment with the extracts of the example and comparative example is shown in FIG. 4.

Consider `O=c1c(O)c(-c2ccc(O)c(O)c2)oc2cc(O)cc(O)c12` [Quercetin, quercetin], for which the “HaCaT cell growth rate” value in the data set on HaCaT cells (25 μM) was 104.3 ± 1.3%; with HaCaT cells (50 μM) it was 105.9 ± 1.0%; with HaCaT cells (100 μM), 109.4 ± 2.1%; in the data set on HaCaT cells (200 μM), 92.8 ± 2.8%. Besides, the “Cytotoxicity for the skin keratinocytes” value in the data set with HaCaT cells (HaCaT cells, tested concentrations of Table 2) is reported as “none of the example, comparative example or quercetin exhibited cytotoxicity”. Also, in data set [1], the “Production of hyaluronic acid” value is reported as “promoted the production of the moisturizing factor hyaluronic acid”. Moreover, the Production of filaggrin entry in data set [2] is “promoted the production of the moisturizing factor filaggrin”.
